Experimental data taken from ChEMBL document CHEMBL1955793, “Integrated structure-based activity prediction model of benzothiadiazines on various genotypes of HCV NS5b polymerase (1a, 1b and 4) and its application in the discovery of new derivatives” (Bioorg Med Chem, 2012).
Active and inactive are the calls of the source. The rule behind the calls is not given here.

Legend:
[1] = Inhibition of Hepatitis C virus genotype 1a NS5B polymerase; set-up: species or system Hepatitis C virus subtype 1a
Hepatitis C virus [2] = assay: Inhibition of Hepatitis C virus genotype 1b NS5B polymerase; set-up: species or system Hepatitis C virus subtype 1b
[3] = system: Hepatitis C virus genotype 4; assay: Inhibition of Hepatitis C virus genotype 4 NS5B polymerase at 10 uM
[4] = Cytotoxicity against human HuH5.2 cells after 1.5 hrs by MTS assay; type: cell-based, Huh-5-2
Hepatitis C virus [5] = assay: Antiviral activity against Hepatitis C virus genotype 1b 1389 infected in human HuH5.2 cells assessed as inhibition of viral replication after 72 hrs by luciferase reporter gene assay; type: functional, organism-based, Hepacivirus hominis; details: genotype 1b 1389, Huh-5-2, 72 h
Hepatitis C virus [6] = assay: Inhibition of Hepatitis C virus genotype 1b 1389 NS5B polymerase; set-up: species or system Hepatitis C virus subtype 1b

For `O=c1c(C2=NS(=O)(=O)c3ccccc3N2)c(O)c2ccccc2n1NCc1ccco1`, the IC50 [1] was 3.26 µM and the IC50 (Hepatitis C virus [2]) was 0.305 µM.

For `CC(C)CCn1cc(C2=NS(=O)(=O)c3ccccc3N2)c2ccccc21`, the inhibition [3] was “inactive”, the CC50 at 1.5 h [4] was over 50 µM and the EC50 (Hepatitis C virus [5]) was 19.7 µM.

In the case of `O=c1c(C2=NS(=O)(=O)c3ccccc3N2)c(O)c2ccccc2n1NC1=CCOC=C1`, the IC50 [1] is reported as 4.63 µM and the IC50 (Hepatitis C virus [2]) is reported as 0.439 µM.

`Cc1cccc(CNn2c(=O)c(C3=NS(=O)(=O)c4ccccc4N3)c(O)c3ccccc32)c1` gave an IC50 [1] of 8.21 µM and an IC50 (Hepatitis C virus [2]) of 0.212 µM.

With `O=S1(=O)N=C(c2cn(Cc3ccccc3)c3ccccc23)Nc2ncc(Br)cc21` the inhibition [3] was “inactive”, the CC50 at 1.5 h [4] was over 50 µM and the EC50 (Hepatitis C virus [5]) was 20.2 µM.

`CC(C)CCn1cc(C2=NS(=O)(=O)c3cc(NS(C)(=O)=O)ccc3N2)c2ccccc21` gave an inhibition [3] of 60% and an IC50 (Hepatitis C virus [6]) of 1.2 µM.

`O=c1c(C2=NS(=O)(=O)c3ccccc3N2)c(O)c2ccccc2n1NCc1cccc(Br)c1` gave an IC50 [1] of 1.04 µM and an IC50 (Hepatitis C virus [2]) of 0.075 µM.

For `CCc1cc(CC[C@]2(C3CCCC3)CC(O)=C(Cc3nc4nc(C)cc(C)n4n3)C(=O)O2)cc(CC)n1` [FILIBUVIR], the EC50 (Hepatitis C virus [5]) was 0.041 µM.

For `O=c1c(C2=NS(=O)(=O)c3ccccc3N2)c(O)c2ccccc2n1NCc1cccs1`, the IC50 [1] was 2.33 µM and the IC50 (Hepatitis C virus [2]) was 0.125 µM.

With `Cc1c(C2=NS(=O)(=O)c3ccccc3N2)c2ccccc2n1Cc1ccccc1` the inhibition [3] was “inactive”.

`O=c1c(C2=NS(=O)(=O)c3ccccc3N2)c(O)c2ccccc2n1NC1CCCCCC1` gave an IC50 [1] of 1.04 µM and an IC50 (Hepatitis C virus [2]) of 0.217 µM.

With `O=c1c(C2=NS(=O)(=O)c3ccccc3N2)c(O)c2ccccc2n1NC1CCCCC1` the IC50 [1] was 0.356 µM and the IC50 (Hepatitis C virus [2]) was 0.06 µM.

`O=c1c(C2=NS(=O)(=O)c3ccccc3N2)c(O)c2ccccc2n1NCc1nccs1` gave an IC50 [1] of 35.8 µM and an IC50 (Hepatitis C virus [2]) of 0.674 µM.

With `CC(C)n1cc(C2=NS(=O)(=O)c3ccccc3N2)c2ccccc21` the inhibition [3] was “inactive”.

Work on `CS(=O)(=O)Nc1ccc2c(c1)S(=O)(=O)N=C(c1cn(Cc3ccccc3)c3ccccc13)N2` yielded an inhibition [3] of 60%.

Work on `CC(C)CCNn1c(=O)c(C2=NS(=O)(=O)c3ccccc3N2)c(O)c2ccccc21` yielded an IC50 [1] of 0.629 µM and an IC50 (Hepatitis C virus [2]) of 0.134 µM.

For `CCCn1cc(C2=NS(=O)(=O)c3cc(Br)cnc3N2)c2ccccc21`, the inhibition [3] was “inactive”, the CC50 at 1.5 h [4] was 16.6 µM and the EC50 (Hepatitis C virus [5]) was 2.96 µM.

With `CCCCCNn1c(=O)c(C2=NS(=O)(=O)c3ccccc3N2)c(O)c2ccccc21` the IC50 [1] was 0.928 µM and the IC50 (Hepatitis C virus [2]) was 0.1 µM.

For `CCCn1cc(C2=NS(=O)(=O)c3ccccc3N2)c2ccccc21`, the inhibition [3] was “inactive”, the CC50 at 1.5 h [4] was over 50 µM and the EC50 (Hepatitis C virus [5]) was 4.15 µM.

`CCC(CC)Nn1c(=O)c(C2=NS(=O)(=O)c3ccccc3N2)c(O)c2ccccc21` gave an IC50 [1] of 2.46 µM and an IC50 (Hepatitis C virus [2]) of 0.12 µM.

With `CCCCn1cc(C2=NS(=O)(=O)c3ccccc3N2)c2ccccc21` the inhibition [3] was “inactive”, the CC50 at 1.5 h [4] was over 50 µM and the EC50 (Hepatitis C virus [5]) was 8.01 µM.

In the case of `CC(C)CCn1cc(C2=NS(=O)(=O)c3ccccc3N2)c2cc(Br)ccc21`, the inhibition [3] is reported as “inactive”, the CC50 at 1.5 h [4] is reported as over 50 µM and the EC50 (Hepatitis C virus [5]) is reported as 18.4 µM.

For `CCCn1cc(C2=NS(=O)(=O)c3cc(Br)ccc3N2)c2ccccc21`, the inhibition [3] was “inactive”.

`O=c1c(C2=NS(=O)(=O)c3ccccc3N2)c(O)c2ccccc2n1NCC1CC1` showed an IC50 [1] of 0.285 µM and an IC50 (Hepatitis C virus [2]) of 0.145 µM.

With `CCCn1cc(C2=NS(=O)(=O)c3cc(I)ccc3N2)c2ccccc21` the inhibition [3] was “inactive”.

Compound `CCCC(Nn1c(=O)c(C2=NS(=O)(=O)c3ccccc3N2)c(O)c2ccccc21)C(C)C` (stereo not drawn) has an IC50 [1] of 6.4 µM and an IC50 (Hepatitis C virus [2]) of 1.13 µM.

In the case of `CC(C)n1cc(C2=NS(=O)(=O)c3cc(Br)cnc3N2)c2ccccc21`, the inhibition [3] is reported as “inactive”.
